Series [1] deals with T1, Amine oxidase [flavin-containing] A (Homo sapiens, UniProt P21397).
T1 sequence (P21397 whole entry): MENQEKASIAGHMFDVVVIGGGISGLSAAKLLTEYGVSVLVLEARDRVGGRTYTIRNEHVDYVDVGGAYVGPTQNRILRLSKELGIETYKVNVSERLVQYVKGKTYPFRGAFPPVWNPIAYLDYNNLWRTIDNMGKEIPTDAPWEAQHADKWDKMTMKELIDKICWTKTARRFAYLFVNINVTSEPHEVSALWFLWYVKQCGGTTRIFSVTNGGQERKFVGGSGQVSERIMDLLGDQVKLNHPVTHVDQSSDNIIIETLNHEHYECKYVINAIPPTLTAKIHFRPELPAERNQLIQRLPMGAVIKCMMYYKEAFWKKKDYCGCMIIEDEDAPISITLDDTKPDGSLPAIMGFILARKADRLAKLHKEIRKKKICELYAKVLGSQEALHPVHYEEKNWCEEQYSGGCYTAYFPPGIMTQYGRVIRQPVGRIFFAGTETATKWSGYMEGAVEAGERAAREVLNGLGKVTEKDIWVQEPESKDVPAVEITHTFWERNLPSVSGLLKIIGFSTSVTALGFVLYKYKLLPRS
Put plainly: Inhibition of human recombinant MAOA using kynuramine as substrate incubated for 10 mins by UPLC-ESI-MS/MS analysis.

For series [2], the target named is T2, Amine oxidase [flavin-containing] B (Homo sapiens, UniProt P27338).
T2 sequence (P27338 whole entry): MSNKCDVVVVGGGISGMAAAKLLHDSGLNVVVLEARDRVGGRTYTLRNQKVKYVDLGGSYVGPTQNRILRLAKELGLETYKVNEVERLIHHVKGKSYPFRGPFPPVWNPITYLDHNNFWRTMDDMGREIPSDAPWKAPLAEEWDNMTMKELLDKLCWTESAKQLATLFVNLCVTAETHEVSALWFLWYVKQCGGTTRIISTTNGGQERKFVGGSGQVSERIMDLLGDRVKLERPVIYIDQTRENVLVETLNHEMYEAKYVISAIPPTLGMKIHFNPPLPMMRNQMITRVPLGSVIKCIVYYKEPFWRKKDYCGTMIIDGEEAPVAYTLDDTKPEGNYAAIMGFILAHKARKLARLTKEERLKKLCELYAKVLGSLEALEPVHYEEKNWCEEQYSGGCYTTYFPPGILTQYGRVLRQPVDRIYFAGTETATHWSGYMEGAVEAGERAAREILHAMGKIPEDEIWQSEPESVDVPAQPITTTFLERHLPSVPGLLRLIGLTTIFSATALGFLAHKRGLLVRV
Put plainly: Inhibition of human recombinant MAOB using kynuramine as substrate incubated for 10 mins by UPLC-ESI-MS/MS analysis.

The species entered for another series is Homo sapiens. Briefly: Selectivity index, ratio of IC50 for human recombinant MAOB to IC50 for human recombinant MAOA.
Series [3] deals with T1, Amine oxidase [flavin-containing] A. Put plainly: Inhibition of human recombinant MAOA using kynuramine as substrate incubated for 10 mins by UPLC-ESI-MS/MS analysis based Michaelis-Menten plot kinetic analysis.
Series [4] shares this target. Briefly: Inhibition of human recombinant MAOA using kynuramine as substrate incubated for 10 mins by UPLC-ESI-MS/MS analysis based Eadie-Hofstee plot analysis.
Series [5] shares this target. Briefly: Tight-binding competitive inhibition of human recombinant MAOA using kynuramine as substrate incubated for 10 mins by UPLC-ESI-MS/MS analysis based Lineweaver-Burk plot kinetic analysis.

As for `Cc1cc(C(=O)O)c(O)c2c1C[C@@H](C)OC2=O`, the IC50 in series [1] and in series [2] was above 50 µM in each case.

For `Cc1cc(-c2ccc(N)cc2)c(O)c2c1C[C@@H](C)OC2=O`, the values for the IC50 in series [1] and in series [2] were 0.8 µM and 21 µM, respectively. Besides, in the series filed under Homo sapiens, the Ratio IC50 is 26.

Turning to `Cc1ccc(O)c2c1CC(C)(C)OC2=O`, the IC50 in series [1] and in series [2] was above 50 µM each time.

On to `C[C@@H]1Cc2cccc(O)c2C(=O)O1` [(-)-(R)-MELLEIN], for which the figures for the half-maximal inhibitory concentration (IC50) in series [1] and in series [2] were 6.2 µM and 50 µM, respectively. Moreover, the Ratio IC50 in the series filed under Homo sapiens came out at 8.1.

For the compound `Cc1cc(-c2ccc(O)cc2)c(O)c2c1C[C@@H](C)OC2=O`, the IC50 in series [1] is 1.1 µM; in series [2], 38.9 µM. In addition, the Ratio IC50 in the series filed under Homo sapiens was 38.

Take `Cc1cc(C(=O)N(C)C)c(O)c2c1C[C@@H](C)OC2=O`: the IC50 in series [1] and in series [2] was above 50 µM each time.

For `C[C@H]1Cc2cccc(O)c2C(=O)O1`, the IC50 in series [1] came out at 7.5 µM; in series [2], 24 µM. For the same compound, the Ratio IC50 in the series filed under Homo sapiens was found to be 3.2.

For `Cc1cc(C#N)c(O)c2c1C[C@@H](C)OC2=O`, the 50% inhibitory concentration (IC50) in series [1] and in series [2] was above 50 µM each time.

For the compound `Cc1cc(-c2cncnc2)c(O)c2c1C[C@@H](C)OC2=O`, the IC50 in series [1] is 0.14 µM; in series [2], above 50 µM. Moreover, the “inhibition (INH)” value in series [3], in series [4] and in series [5] was “Active” each time. For the same compound, the Ratio IC50 in the series listed under Homo sapiens is above 350.

Regarding `CCc1ccc(O)c2c1C[C@@H](C)OC2=O`, the IC50 was above 50 µM in series [1] and 16.1 µM in series [2]. For the same compound, in the series listed under Homo sapiens, the Ratio IC50 was below 0.3.

`Cc1cc(-c2ccccc2)c(O)c2c1C[C@@H](C)OC2=O`: the IC50 in series [1] came out at 10.5 µM; in series [2] it was 1 µM. Besides, in the series filed under Homo sapiens, the Ratio IC50 stood at 0.1.

For `Cc1cc(-c2ccccn2)c(O)c2c1C[C@@H](C)OC2=O`, the results for the IC50 in series [1] and in series [2] were 2.1 µM and above 50 µM, respectively. In the series filed under Homo sapiens, the Ratio IC50 is above 24.

Turning to `CC[C@@H]1Cc2c(C)cc(-c3ccc(N)cc3)c(O)c2C(=O)O1`, the IC50 in series [1] was 0.3 µM; in series [2] it was above 50 µM. In the series listed under Homo sapiens, the Ratio IC50 was above 167.

`C=CC(=O)Nc1cc(C)c2c(c1O)C(=O)O[C@H](C)C2`: the IC50 in series [1] and in series [2] was above 50 µM each time.

`Cc1cc(-c2cccnc2)c(O)c2c1C[C@@H](C)OC2=O`: the IC50 is 0.2 µM in series [1] and above 50 µM in series [2]. The “inhibition (INH)” value in series [3], in series [4] and in series [5] was “Active” throughout. Also, in the series filed under Homo sapiens, the Ratio IC50 was above 250.

With `Cc1cc(Br)c(O)c2c1C[C@@H](C)OC2=O`, the IC50 in series [1] is 28.6 µM; in series [2], above 50 µM. Further, in the series filed under Homo sapiens, the Ratio IC50 was above 1.7.

Take `Cc1cc(C(=O)NCCN2CCOCC2)c(O)c2c1C[C@@H](C)OC2=O`: the IC50 in series [1] and in series [2] was above 50 µM in each case.

As for `Cc1cc(Cl)c(O)c2c1C[C@@H](C)OC2=O`, the IC50 in series [1] was 2.2 µM; in series [2], above 50 µM. Further, the Ratio IC50 in the series listed under Homo sapiens is above 22.

As to `Cc1cc(N)c(O)c2c1C[C@@H](C)OC2=O`, the results for the IC50 in series [1] and in series [2] were 4.1 µM and above 50 µM, respectively. For the same compound, the Ratio IC50 in the series filed under Homo sapiens is above 11.

Turning to `Cc1ccc(-c2cc(C)c3c(c2O)C(=O)O[C@H](C)C3)cc1`, the values for the IC50 in series [1] and in series [2] were 12.4 µM and 4.1 µM, respectively. For the same compound, the Ratio IC50 in the series listed under Homo sapiens was 0.3.

Regarding `Cc1cc(CO)c(O)c2c1C[C@@H](C)OC2=O`, the IC50 in series [1] was 19.2 µM; in series [2], above 50 µM. Besides, the Ratio IC50 in the series filed under Homo sapiens is above 2.6.

Take `COc1ccc(C)c2c1C(=O)O[C@H](C)C2`: the half-maximal inhibitory concentration (IC50) in series [1] and in series [2] was above 50 µM in each case.

Consider `Cc1cc(-c2cccc([N+](=O)[O-])c2)c(O)c2c1C[C@@H](C)OC2=O`, for which the values for the half-maximal inhibitory concentration (IC50) in series [1] and in series [2] were 3 µM and above 50 µM, respectively. Further, the Ratio IC50 in the series filed under Homo sapiens was above 17.

For the compound `Cc1cc(C)c2c(c1O)C(=O)O[C@H](C)C2`, the concentration for half-maximal inhibition (IC50) is 3.8 µM in series [1] and above 50 µM in series [2]. Also, the Ratio IC50 in the series listed under Homo sapiens is above 13.

As to `CCCCc1cc(C)c2c(c1O)C(=O)O[C@H](C)C2`, the IC50 in series [1] was 18.3 µM; in series [2], above 50 µM. Further, in the series filed under Homo sapiens, the Ratio IC50 is above 2.7.

Turning to `Cc1cc([N+](=O)[O-])c(O)c2c1C[C@@H](C)OC2=O`, the IC50 was 15.8 µM in series [1] and above 50 µM in series [2]. Further, the Ratio IC50 in the series listed under Homo sapiens is above 3.1.

As for `Cc1cc(-c2ccncc2)c(O)c2c1C[C@@H](C)OC2=O`, the IC50 is 2.7 µM in series [1] and above 50 µM in series [2]. For the same compound, the Ratio IC50 in the series listed under Homo sapiens was above 18.

Take `COc1cccc2c1C(=O)O[C@H](C)C2`: the concentration for half-maximal inhibition (IC50) in series [1] and in series [2] was above 50 µM in each case.

`Cc1cc(C(=O)N2CCN(C)CC2)c(O)c2c1C[C@@H](C)OC2=O`: the half-inhibitory concentration (IC50) in series [1] and in series [2] was above 50 µM throughout.

In the case of `Cc1ccc(O)c2c1C[C@H](C)OC2=O`, the IC50 in series [1] was determined as 4.1 µM; in series [2], 40.9 µM. Moreover, the Ratio IC50 in the series filed under Homo sapiens turned out to be 10.

With `Cc1cc(N(C)C)c(O)c2c1C[C@@H](C)OC2=O`, the IC50 in series [1] is 13.6 µM; in series [2], above 50 µM. Further, the Ratio IC50 in the series listed under Homo sapiens is above 3.6.

For the compound `C[C@@H]1Cc2c(CO)ccc(O)c2C(=O)O1`, the IC50 in series [1] and in series [2] was above 50 µM throughout.

On to `Cc1cc(-c2cccc(N)c2)c(O)c2c1C[C@@H](C)OC2=O`, for which the values for the IC50 in series [1] and in series [2] were 0.2 µM and above 50 µM, respectively. Also, the “inhibition (INH)” value in series [3], in series [4] and in series [5] was “Active” each time. For the same compound, the Ratio IC50 in the series listed under Homo sapiens is above 250.

As for `COc1ccc(C)c2c1C(=O)O[C@@H](C)C2`, the IC50 in series [1] and in series [2] was above 50 µM throughout.

`C[C@@H]1Cc2c(O)ccc(O)c2C(=O)O1`: the IC50 in series [1] is 17.1 µM; in series [2], above 50 µM. Also, the Ratio IC50 in the series listed under Homo sapiens is above 2.9.

Turning to `COc1ccc(NCc2cc(C)c3c(c2O)C(=O)O[C@H](C)C3)cc1`, the values for the IC50 in series [1] and in series [2] were 4.4 µM and above 50 µM, respectively. Besides, in the series listed under Homo sapiens, the Ratio IC50 is above 11.

As for `CCCc1cc(C)c2c(c1O)C(=O)O[C@H](C)C2`, the results for the concentration for half-maximal inhibition (IC50) in series [1] and in series [2] were 4.5 µM and above 50 µM, respectively. Also, the Ratio IC50 in the series listed under Homo sapiens was above 11.

Take `Cc1ccc(O)c2c1CCOC2=O`: the IC50 in series [1] is 3.2 µM; in series [2], 5.5 µM. Besides, the Ratio IC50 in the series listed under Homo sapiens worked out at 1.7.

`C[C@@H]1Cc2c(C(=O)O)ccc(O)c2C(=O)O1`: the IC50 in series [1] and in series [2] was above 50 µM throughout.

With `CCN(CC)C(=O)c1cc(C)c2c(c1O)C(=O)O[C@H](C)C2`, the IC50 in series [1] and in series [2] was above 50 µM in each case.

In the case of `Cc1cc(C(=O)N2CCOCC2)c(O)c2c1C[C@@H](C)OC2=O`, the IC50 in series [1] and in series [2] was above 50 µM throughout.

On to `Cc1cc(I)c(O)c2c1C[C@@H](C)OC2=O`, for which the IC50 in series [1] is 15.9 µM; in series [2], above 50 µM. The Ratio IC50 in the series filed under Homo sapiens was above 3.1.

Regarding `Cc1cc(-c2ccc(C(F)(F)F)cc2)c(O)c2c1C[C@@H](C)OC2=O`, the values for the IC50 in series [1] and in series [2] were 13.7 µM and 1 µM, respectively. Further, in the series filed under Homo sapiens, the Ratio IC50 was 0.1.

`CC[C@@H]1Cc2c(C)ccc(O)c2C(=O)O1`: the IC50 in series [1] is 8 µM; in series [2] it was above 50 µM. In addition, the Ratio IC50 in the series filed under Homo sapiens was above 6.2.

Turning to `CCc1cc(C)c2c(c1O)C(=O)O[C@H](C)C2`, the figures for the concentration for half-maximal inhibition (IC50) in series [1] and in series [2] were 2.9 µM and above 50 µM, respectively. Further, in the series listed under Homo sapiens, the Ratio IC50 is above 17.

`Cc1cc2cccc(O)c2c(=O)o1`: the IC50 is 23.4 µM in series [1] and above 50 µM in series [2]. Besides, in the series filed under Homo sapiens, the Ratio IC50 was above 2.

Source of the values: ChEMBL document CHEMBL4392854, “Discovery, synthesis, biological evaluation and molecular docking study of (R)-5-methylmellein and its analogs as selective monoamine oxidase A inhibitors” (Bioorg Med Chem, 2019).
